Values quoted from earlier work, collected in EP0388817A2, “Use of mixed micelles and mixed micelle solutions of immunomodulators” (F. Hoffmann-La Roche AG, priority 1989, dated 1990).

Settings: octanol/water

Row | Verteilungskoeffizient in Octanol/Wasser | Substance
1 | > 10^6 | Vitamin K
2 | > 10^6 | Vitamin E
3 | > 10^6 | Vitamin A
